Reference: patent US20210254056A1, “IDENTIFICATION AND TARGETED MODULATION OF GENE SIGNALING NETWORKS” (CAMP4 THERAPEUTICS CORPORATION, priority 2017, published 2021)
Where two headings read alike, the source gives them in different places.

System: hepatocytes
Assay: RNA-seq of hepatocytes treated with Phase III failure compounds
Settings: for significant modulation of expression of disease genes: q≤0.05, genes in the value or listed in the block; for B2M expression, RNA-seq result: gene B2M; for B9D2 expression, RNA-seq result: gene B9D2; for BAAT expression, RNA-seq result: gene BAAT; for BBOX1 expression, RNA-seq result: gene BBOX1; for BBS10 expression, RNA-seq result: gene BBS10; for BCHE expression, RNA-seq result: gene BCHE; for BCKDHB expression, RNA-seq result: gene BCKDHB; for BCKDK expression, RNA-seq result: gene BCKDK; for BCO1 expression, RNA-seq result: gene BCO1; for BCR expression, RNA-seq result: gene BCR; for BLNK expression, RNA-seq result: gene BLNK; for BLOC1S3 expression, RNA-seq result: gene BLOC1S3; for BMPR1A expression, RNA-seq result: gene BMPR1A; for BRAF expression, RNA-seq result: gene BRAF; for BSCL2 expression, RNA-seq result: gene BSCL2; for BTD expression, RNA-seq result: gene BTD; for C4A expression, RNA-seq result: gene C4A; for C9 expression, RNA-seq result: gene C9; for C10orf10 expression, RNA-seq result: gene C10orf10; for C10orf11 expression, RNA-seq result: gene C10orf11; for C15orf41 expression, RNA-seq result: gene C15orf41; for CA2 expression, RNA-seq result: gene CA2; for CA5A expression, RNA-seq result: gene CA5A; for CA12 expression, RNA-seq result: gene CA12; for CAV1 expression, RNA-seq result: gene CAV1; for CCND1 expression, RNA-seq result: gene CCND1; for CD46 expression, RNA-seq result: gene CD46; for CD81 expression, RNA-seq result: gene CD81; for CD320 expression, RNA-seq result: gene CD320; for CDAN1 expression, RNA-seq result: gene CDAN1; for CDH1 expression, RNA-seq result: gene CDH1; for CEP19 expression, RNA-seq result: gene CEP19; for CEP83 expression, RNA-seq result: gene CEP83; for CEP164 expression, RNA-seq result: gene CEP164; for CEP290 expression, RNA-seq result: gene CEP290; for CFB expression, RNA-seq result: gene CFB; for CFHR2 expression, RNA-seq result: gene CFHR2; for CHRM3 expression, RNA-seq result: gene CHRM3; for CIDEC expression, RNA-seq result: gene CIDEC; for CLDN1 expression, RNA-seq result: gene CLDN1; for COG1 expression, RNA-seq result: gene COG1
Procedure: RNA-seq was performed to determine the effects of the compounds on hepatocytes.
Significance was determined by the criteria of FPKM≥0.5, a log 2(fold-change)≥1, and a […].

Cn1c(COP(=O)(NCCBr)NCCBr)cnc1[N+](=O)[O-] [TH-302 (Evofosfamide), Evofosfamide]
Number (#) of genes having significantly changed expression: 28
significant modulation of expression of disease genes (RNA-seq, hepatocytes): significantly (q≤0.05) modulate expression of the following genes: FAM111B, FGFR2, PKHD1, and RMRP
B2M expression, RNA-seq result (hepatocytes): 0.16
B9D2 expression, RNA-seq result (hepatocytes): −0.2
BAAT expression, RNA-seq result (hepatocytes): 0.12
BBOX1 expression, RNA-seq result (hepatocytes): 0.35
BBS10 expression, RNA-seq result (hepatocytes): 0.24
BCHE expression, RNA-seq result (hepatocytes): −0.07
BCKDHB expression, RNA-seq result (hepatocytes): −0.17
BCKDK expression, RNA-seq result (hepatocytes): 0.04
BCO1 expression, RNA-seq result (hepatocytes): −0.28
BCR expression, RNA-seq result (hepatocytes): −0.01
BLNK expression, RNA-seq result (hepatocytes): −0.2
BLOC1S3 expression, RNA-seq result (hepatocytes): 0.04
BMPR1A expression, RNA-seq result (hepatocytes): −0.05
BRAF expression, RNA-seq result (hepatocytes): −0.01
BSCL2 expression, RNA-seq result (hepatocytes): −0.03
BTD expression, RNA-seq result (hepatocytes): −0.16
C4A expression, RNA-seq result (hepatocytes): −0.36
C9 expression, RNA-seq result (hepatocytes): 0.16
C10orf10 expression, RNA-seq result (hepatocytes): −0.2
C10orf11 expression, RNA-seq result (hepatocytes): −0.71
C15orf41 expression, RNA-seq result (hepatocytes): 0.08
CA2 expression, RNA-seq result (hepatocytes): 0.11
CA5A expression, RNA-seq result (hepatocytes): −0.1
CA12 expression, RNA-seq result (hepatocytes): 0.32
CAV1 expression, RNA-seq result (hepatocytes): 0.13
CCND1 expression, RNA-seq result (hepatocytes): 0.16
CD46 expression, RNA-seq result (hepatocytes): 0.08
CD81 expression, RNA-seq result (hepatocytes): 0.09
CD320 expression, RNA-seq result (hepatocytes): 0.17
CDAN1 expression, RNA-seq result (hepatocytes): 0.11
CDH1 expression, RNA-seq result (hepatocytes): −0.56
CEP19 expression, RNA-seq result (hepatocytes): −0.02
CEP83 expression, RNA-seq result (hepatocytes): −0.06
CEP164 expression, RNA-seq result (hepatocytes): −0.03
CEP290 expression, RNA-seq result (hepatocytes): 0.16
CFB expression, RNA-seq result (hepatocytes): 0.01
CFHR2 expression, RNA-seq result (hepatocytes): 0.13
CHRM3 expression, RNA-seq result (hepatocytes): −0.58
CIDEC expression, RNA-seq result (hepatocytes): −0.06
CLDN1 expression, RNA-seq result (hepatocytes): −0.05
COG1 expression, RNA-seq result (hepatocytes): 0.12

CN(C)[C@@H]1C(O)=C(C(N)=O)C(=O)[C@@]2(O)C(O)=C3C(=O)c4c(O)c(NC(=O)CN5CCCC5)cc(F)c4C[C@H]3C[C@@H]12 [TP-434 (Eravacycline), Eravacycline]
Number (#) of genes having significantly changed expression: 232
significant modulation of expression of disease genes (RNA-seq, hepatocytes): significantly (q≤0.05) modulate expression
B2M expression, RNA-seq result (hepatocytes): 0.56
B9D2 expression, RNA-seq result (hepatocytes): 0.16
BAAT expression, RNA-seq result (hepatocytes): −0.52
BBOX1 expression, RNA-seq result (hepatocytes): −0.06
BBS10 expression, RNA-seq result (hepatocytes): 0.05
BCHE expression, RNA-seq result (hepatocytes): 0.12
BCKDHB expression, RNA-seq result (hepatocytes): 0.04
BCKDK expression, RNA-seq result (hepatocytes): −0.23
BCO1 expression, RNA-seq result (hepatocytes): −0.13
BCR expression, RNA-seq result (hepatocytes): −0.17
BLNK expression, RNA-seq result (hepatocytes): −0.18
BLOC1S3 expression, RNA-seq result (hepatocytes): 0.32
BMPR1A expression, RNA-seq result (hepatocytes): −0.06
BRAF expression, RNA-seq result (hepatocytes): 0.03
BSCL2 expression, RNA-seq result (hepatocytes): 1.5
BTD expression, RNA-seq result (hepatocytes): −0.25
C4A expression, RNA-seq result (hepatocytes): −0.38
C9 expression, RNA-seq result (hepatocytes): 0.21
C10orf10 expression, RNA-seq result (hepatocytes): −0.02
C10orf11 expression, RNA-seq result (hepatocytes): 0.56
C15orf41 expression, RNA-seq result (hepatocytes): 0.12
CA2 expression, RNA-seq result (hepatocytes): 0.71
CA5A expression, RNA-seq result (hepatocytes): 0.32
CA12 expression, RNA-seq result (hepatocytes): 0.2
CAV1 expression, RNA-seq result (hepatocytes): 0.34
CCND1 expression, RNA-seq result (hepatocytes): −0.7
CD46 expression, RNA-seq result (hepatocytes): 0.23
CD81 expression, RNA-seq result (hepatocytes): 0.17
CD320 expression, RNA-seq result (hepatocytes): 0.3
CDAN1 expression, RNA-seq result (hepatocytes): −0.27
CDH1 expression, RNA-seq result (hepatocytes): −0.59
CEP19 expression, RNA-seq result (hepatocytes): 0.1
CEP83 expression, RNA-seq result (hepatocytes): −0.15
CEP164 expression, RNA-seq result (hepatocytes): −0.21
CEP290 expression, RNA-seq result (hepatocytes): 0.55
CFB expression, RNA-seq result (hepatocytes): 0.23
CFHR2 expression, RNA-seq result (hepatocytes): 0.4
CHRM3 expression, RNA-seq result (hepatocytes): −0.27
CIDEC expression, RNA-seq result (hepatocytes): −0.79
CLDN1 expression, RNA-seq result (hepatocytes): 0.09
COG1 expression, RNA-seq result (hepatocytes): −0.37

CO[C@H]1C[C@@H]2CC[C@@H](C)[C@@](O)(O2)C(=O)C(=O)N2CCCC[C@H]2C(=O)O[C@H]([C@H](C)C[C@@H]2CC[C@@H](OC(=O)C(C)(CO)CO)[C@H](OC)C2)CC(=O)[C@H](C)/C=C(\C)[C@@H](O)[C@@H](OC)C(=O)[C@H](C)C[C@H](C)/C=C/C=C/C=C/1C [Temsirolimus]
Number (#) of genes having significantly changed expression (RNA-seq, Phase III failure compounds, hepatocytes, significance: FPKM≥0.5, log 2(fold-change)≥1, q-value≥0.05 (so in the source)): 34
significant modulation of expression of any of the genes analyzed (RNA-seq, p≤0.05, hepatocytes): not observed to significantly modulate expression
effect on disease gene expression (RNA-seq, hepatocytes): no effect on any disease gene
